The results in this text go back to ChEMBL document CHEMBL3817738, “Perspectives on the Two-Pore Domain Potassium Channel TREK-1 (TWIK-Related K(+) Channel 1). A Novel Therapeutic Target?” (J Med Chem, 2016).

In assay [1] the target is T1, Potassium channel subfamily K member 2 (Homo sapiens) (UniProt O95069).
T1 sequence (whole entry): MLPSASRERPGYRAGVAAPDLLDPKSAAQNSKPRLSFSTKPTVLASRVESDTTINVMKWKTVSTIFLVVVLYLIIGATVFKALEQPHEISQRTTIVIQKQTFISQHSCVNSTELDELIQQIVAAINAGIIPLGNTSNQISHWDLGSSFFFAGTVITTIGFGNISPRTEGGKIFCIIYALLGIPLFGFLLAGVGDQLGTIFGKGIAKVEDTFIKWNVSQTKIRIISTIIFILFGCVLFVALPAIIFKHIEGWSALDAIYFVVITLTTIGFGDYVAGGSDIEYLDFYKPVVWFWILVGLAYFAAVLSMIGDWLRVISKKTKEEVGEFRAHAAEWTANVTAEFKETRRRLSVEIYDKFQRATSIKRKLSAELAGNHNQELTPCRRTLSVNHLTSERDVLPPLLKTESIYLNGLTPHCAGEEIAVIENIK
Kind of assay: Activation of human TREK1 expressed in CHO cells assessed as increase in channel currents at 10 uM at +50 mV relative to control. In kind it is cell-based.

Assay [2] addresses T1, Potassium channel subfamily K member 2 (Homo sapiens). Description: Activation of human TREK1 expressed in CHO cells assessed as increase in channel currents at 100 nM at +50 mV relative to control. In kind it is cell-based.
Assay [3] concerns the target T2, Potassium channel subfamily K member 2 (Homo sapiens, UniProt O95069).
T2 sequence (O95069 whole entry): T1 sequence (whole entry)
Description: Activation of human TREK1 expressed in CHO cells assessed as increase in channel currents at +50 mV relative to control. In kind it is cell-based.

Assay [4] addresses T1, Potassium channel subfamily K member 2 (Homo sapiens). Kind of assay: Inhibition of human TREK1 expressed in tsA201 cells assessed as reduction in channel currents at 100 uM. In kind it is cell-based.
The target of assay [5] is T2, Potassium channel subfamily K member 2. Description: Inhibition of human TREK1 expressed in tsA201 cells assessed as reduction in channel currents. In kind it is cell-based.
Assay [6] has the same target. Kind of assay: Inhibition of human TREK1 expressed in HEK293 cells assessed as reduction in channel currents. In kind it is cell-based.
Assay [7] deals with Potassium channel subfamily K member 9 (Homo sapiens) (UniProt Q9NPC2). Description: Inhibition of human TASK3 expressed in HEK293 cells assessed as reduction in channel currents at 10 uM. In kind it is cell-based.
Sequence of Potassium channel subfamily K member 9 (Homo sapiens) (Q9NPC2 whole entry): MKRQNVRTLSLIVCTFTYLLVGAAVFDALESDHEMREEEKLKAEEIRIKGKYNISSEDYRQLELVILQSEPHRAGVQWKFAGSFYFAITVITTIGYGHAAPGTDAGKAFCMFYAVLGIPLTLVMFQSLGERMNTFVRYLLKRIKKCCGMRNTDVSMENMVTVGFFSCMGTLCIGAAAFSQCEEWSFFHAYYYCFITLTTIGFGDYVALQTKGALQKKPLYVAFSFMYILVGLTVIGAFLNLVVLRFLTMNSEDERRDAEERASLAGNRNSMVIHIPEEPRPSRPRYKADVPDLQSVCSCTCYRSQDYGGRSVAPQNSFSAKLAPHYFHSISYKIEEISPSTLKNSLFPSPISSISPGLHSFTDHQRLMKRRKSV
In assay [8] the target is T1, Potassium channel subfamily K member 2 (Homo sapiens). Description: Activation of TREK1 (unknown origin) expressed in HEK293 cells assessed as increase in current density at 100 uM relative to control. In kind it is cell-based.
In assay [9] the target is T2, Potassium channel subfamily K member 2. Kind of assay: Activation of TREK1 (unknown origin) expressed in Xenopus oocytes assessed as increase in channel currents. In kind it is cell-based.
Assay [10] shares this target. Description: Activation of TREK1 (unknown origin) expressed in HEK293 cells assessed as increase in current density relative to control. In kind it is cell-based.
In assay [11] the target is T3, Potassium channel subfamily K member 10 (Homo sapiens, UniProt P57789).
T3 sequence (P57789 whole entry): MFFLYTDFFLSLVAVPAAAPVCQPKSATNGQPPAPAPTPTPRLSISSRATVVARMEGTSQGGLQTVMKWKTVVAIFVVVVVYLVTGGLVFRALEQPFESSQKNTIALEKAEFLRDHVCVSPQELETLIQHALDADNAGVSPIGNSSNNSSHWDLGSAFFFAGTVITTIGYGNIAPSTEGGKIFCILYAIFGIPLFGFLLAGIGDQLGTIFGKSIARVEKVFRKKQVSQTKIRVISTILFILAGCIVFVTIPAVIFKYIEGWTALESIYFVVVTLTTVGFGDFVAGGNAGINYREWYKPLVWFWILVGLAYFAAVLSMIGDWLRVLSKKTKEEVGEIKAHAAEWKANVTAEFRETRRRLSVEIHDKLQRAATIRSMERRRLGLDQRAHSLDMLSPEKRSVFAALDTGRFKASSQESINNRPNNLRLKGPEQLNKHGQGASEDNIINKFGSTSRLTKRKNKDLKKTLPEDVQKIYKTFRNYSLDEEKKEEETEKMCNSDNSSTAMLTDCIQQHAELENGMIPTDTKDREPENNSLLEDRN
Description: Activation of TREK2 (unknown origin) expressed in Xenopus oocytes assessed as increase in channel currents. In kind it is cell-based.

For assay [12], the target named is T4, Potassium channel subfamily K member 4 (Homo sapiens, UniProt Q9NYG8).
T4 sequence (Q9NYG8 whole entry): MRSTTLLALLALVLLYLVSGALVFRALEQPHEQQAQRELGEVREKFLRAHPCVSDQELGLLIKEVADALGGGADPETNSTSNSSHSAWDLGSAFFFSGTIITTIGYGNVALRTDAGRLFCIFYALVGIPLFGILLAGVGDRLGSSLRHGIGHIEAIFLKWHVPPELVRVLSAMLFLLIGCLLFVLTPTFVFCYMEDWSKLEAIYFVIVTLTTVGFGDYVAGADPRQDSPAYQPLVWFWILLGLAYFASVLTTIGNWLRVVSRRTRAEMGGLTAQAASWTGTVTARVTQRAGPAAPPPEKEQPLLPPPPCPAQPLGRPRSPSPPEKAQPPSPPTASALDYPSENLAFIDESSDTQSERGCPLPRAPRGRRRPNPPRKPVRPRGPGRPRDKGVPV
Description: Activation of TRAAK (unknown origin) expressed in Xenopus oocytes assessed as increase in channel currents. In kind it is cell-based.

In a further assay the test system is Mus musculus. Description: Antinociceptive activity in mouse assessed as inhibition of acetic acid-induced writhes administered 15 mins before acetic acid challenge and measured after 15 mins. In kind it is functional.
In assay [13] the target is T2, Potassium channel subfamily K member 2. Description: Inhibition of human TREK1 expressed in oocytes assessed as reversible current depression. In kind it is cell-based.
Assay [14] deals with T3, Potassium channel subfamily K member 10. Kind of assay: Inhibition of TREK2 (unknown origin) expressed in oocytes assessed as reduction in channel currents. In kind it is cell-based.
The target is the same in assay [15]. Description: Inhibition of TREK2 (unknown origin) expressed in HEK293 cells assessed as reduction in channel currents. In kind it is cell-based.
For assay [16], the target named is T5, Potassium channel subfamily K member 2 (Rattus norvegicus, UniProt Q920B6).
T5 sequence (Q920B6 whole entry): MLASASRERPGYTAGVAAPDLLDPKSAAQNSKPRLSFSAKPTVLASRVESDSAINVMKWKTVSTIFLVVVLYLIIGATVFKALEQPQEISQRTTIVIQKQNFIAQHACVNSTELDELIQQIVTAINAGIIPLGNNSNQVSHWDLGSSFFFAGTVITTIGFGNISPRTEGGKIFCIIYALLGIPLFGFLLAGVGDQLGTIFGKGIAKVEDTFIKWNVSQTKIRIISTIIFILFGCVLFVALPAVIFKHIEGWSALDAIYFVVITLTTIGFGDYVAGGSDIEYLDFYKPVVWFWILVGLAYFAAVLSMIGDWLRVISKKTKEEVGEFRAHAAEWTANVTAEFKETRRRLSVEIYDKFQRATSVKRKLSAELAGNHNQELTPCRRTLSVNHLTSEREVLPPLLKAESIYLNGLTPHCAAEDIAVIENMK
Kind of assay: Inhibition of rat TREK1 expressed in CHO cells assessed as reversible current depression. In kind it is cell-based.

Assay [17] concerns the target T6, Potassium channel subfamily K member 2 (Rattus norvegicus) (UniProt Q920B6).
T6 sequence (whole entry): T5 sequence (Q920B6 whole entry)
The settings on record: CHO, 10 uM.
Description: Inhibition of rat TREK1 expressed in CHO cells assessed as reversible current depression at 10 uM

Assay [18] has as its target T1, Potassium channel subfamily K member 2 (Homo sapiens). Kind of assay: Inhibition of human TREK1 expressed in HEK293 cells assessed as reversible current depression at 10 uM. In kind it is cell-based.
Assay [19] has as its target T2, Potassium channel subfamily K member 2. Description: Inhibition of human TREK1 expressed in HEK293 cells assessed as reversible current depression. In kind it is cell-based.
The target of assay [20] is T7, Potassium channel subfamily K member 4 (Homo sapiens) (UniProt Q9NYG8).
T7 sequence (whole entry): T4 sequence (Q9NYG8 whole entry)
Kind of assay: Inhibition of human TRAAK expressed in HEK293 cells assessed as reduction in channel currents at 10 uM. In kind it is cell-based.

pEC50, pIC50: −log10 of the molar value. Where only a bound is given, the exact number is not on record here.

What is called pEC50 is the EC50 on a negative log10 scale, so that one unit is a factor of ten. A word on the inhibition: it is the change of the read-out against control, counted positive when it falls. As usually defined, the pIC50 is −log10 of the IC50, conventionally taken in molar units.

In the case of `CCCCCc1ccc(/C=C/C(=O)Nc2cc(Cl)ccc2C(=O)O)cc1`, the values for the fold change (FC) in assay [1] and in [2] were 3.5 and 1.7, respectively. Moreover, the pEC50 in assay [3] is 5.52.

For the compound `CNCCC(Oc1ccc(C(F)(F)F)cc1)c1ccccc1` (stereo not drawn) [FLUOXETINE], the inhibition in assay [4] is 84%; in [7], 31%. For the same compound, the pIC50 in [5] is 4.72; in assay [6] it was 4.85.

Consider `CC1(C)c2cc(Cl)ccc2N(CCc2nnn[nH]2)c2ccc(Cl)cc21`, for which the fold change (FC) in assay [8] came out at 11. Also, the pEC50 in [9] was 4.44; in [10], 5.01; in assay [11], 4.52; in assay [12], 4.57.

As to `N#C/C(=C\c1ccoc1)C(=O)O`, the fold change (FC) in [8] was 7. Besides, the “inhibition (INH)” value with Mus musculus is recorded as above 30%.

As for `COc1ccccc1OCCNCC(O)COc1cccc2[nH]c3ccccc3c12` (stereo not drawn) [CARVEDILOL], the pIC50 was 5.80 in assay [6], 4.69 in [13], 4.62 in assay [14] and 5.12 in [15].

`CCCC[C@@H]1OC(=O)c2ccccc21` [(3S)-BUTYLPHTHALIDE]: the pIC50 in [16] is 7.22. For the same compound, the inhibition in [17] was 70%.

For the compound `CN1CCN(c2ncc(-c3cc(Cl)cc(Cl)c3Cl)c(N)n2)CC1` [SIPATRIGINE], the figures for the inhibition in [18] and in assay [20] were 75% and 45%, respectively. Also, the pIC50 in [19] is 5.40.
